Data reported in US20230086718A1, “METHOD FOR PREDICTING THE SURVIVAL TIME OF A PATIENT SUFFERING FROM A CANCER” (INSERM (INSTITUT NATIONAL DE LA SANTÉ ET DE LA RECHERCHE …, priority 2020, published 2023).

How the values were obtained:
Assay type in all cases: cell-based, human
Vδ1 T cells [1] = assay: Adenosine measurement by MALDI TOF spectrometry in supernatants of amplified Vδ1 T cells
Protocol: Amplified Vδ1 T cells (2.106 cells/mL) were washed in cold PBS and resuspended in PBS supplemented with 50 mM AMP (Sigma) at 4° C. for 30 min. After centrifugation, adenosine levels in supernatants were analyzed by MALDI-TOF mass spectrometry, as previously described by Bastid et al..

Vδ1 T cells [2] = assay: Flow cytometry of CD39, CD73 and PD-L1 expression in expanded Vδ1 T cells
From the text: Peripheral Blood Mononuclear Cells (PBMCs) were obtained by density centrifugation on Ficoll-Paque (Eurobio, Les Ulis, France) of blood samples from healthy donors and breast cancer patients. Healthy donor samples were provided by the Etablissement Français du Sang (Convention EFS-OCPM no 21PLER2018-0069) and the blood of patients was provided by the ICM (BCB-EC-1-FR-ICM-ENR-269-004-CRB). […] Vδ1 T cells were isolated from PBMCs by a positive immunoselection using the anti-human Vδ1 antibody (Beckman Coulter) and anti-IgG1 magnetic beads (Miltenyi Biotec). Briefly, 300.106 cells were incubated with 10 μg of anti-human Vδ1 antibody in 5 ml of PBS supplemented with 2% SVF and EDTA (2 mM) for 1 hour at 4° C., then washed and incubated with 200 μl of anti-IgG1 magnetic beads for 1 hour at 4° C., then washed and collected on column according to the manufacturer's instructions (Miltenyi Biotec). Reproducible high purity of Vδ1 T cells (>90%) was obtained with this protocol. Purified Vδ1 T cells (2.106 cells/ml) were stimulated with 2 μg/mL of PHA in the presence of syngeneic macrophages isolated using their adherence properties. Briefly, PBMC (2.106/ml) were incubated in RPMI 10% FCS for 1 hour at 37° C. in 96 well-plates to allow to monocytes to adhere and differentiate in macrophages. Non-adherent cells were removed by 2 washes with RPMI medium. Purified Vδ1 T cells were added to macrophages, activated by PHA and expanded in the complete medium containing RPMI 1640/Glutamax medium supplemented with 5% human AB serum and 5% fetal calf serum (FCS) in the presence of rhIL-2 (control) or rhIL-2+rhIL-21 (experimental condition) at 37° C. in humidified atmosphere with 5% CO2. Every 2 days, fresh medium is added and after 1 week Vδ1 T cells were separated from adherent macrophages and amplified in the complete medium with cytokines for 2 more weeks before phenotyping and analysis.
Cells were first incubated at 4° C. for 30 min with Fc-block solution to minimize non-specific binding of antibodies to Fc receptors, then incubated with a dye cell viability and the panel of antibodies in the staining buffer (PBS-2% FCS) at 4° C. for 30 min, cells were then washed and fixed in 1% paraformaldehyde. Data were acquired with a Cytoflex cytometer (Beckman-Coulter) and analyzed with the FlowJo software.
Peripheral Blood Mononuclear Cells (PBMCs) were obtained by density centrifugation on Ficoll-Paque (Eurobio, Les Ulis, France) of blood samples from healthy donors and breast cancer patients. Healthy donor samples were provided by the Etablissement Français du Sang and the blood of patients was provided by the Institut regional du Cancer de Montpellier (ICM). […] Vδ1 T cells were isolated from PBMCs by a positive immunoselection using the anti-human Vδ1 antibody (Beckman Coulter) and anti-IgG1 magnetic beads (Miltenyi Biotec). Briefly, 300.106 cells were incubated with 10 μg of anti-human Vδ1 antibody in 5 ml of PBS supplemented with 2% SVF and EDTA (2 mM) for 1 hour at 4° C., then washed and incubated with 200 μl of anti-IgG1 magnetic beads for 1 hour at 4° C., then washed and collected on column according to the manufacturer's instructions (Miltenyi Biotec). Reproducible high purity of Vδ1 T cells (>90%) was obtained with this protocol. Purified Vδ1 T cells (2.106 cells/ml) were stimulated with 2 μg/mL of PHA in the presence of syngeneic macrophages isolated using their adherence properties. […]

Vδ1 T cells [3] = assay: ELISA of IL-10, IL-8 and TGF-β in supernatants of expanded Vδ1 T cells
From the text: Phytohemagglutinin (PHA) was purchased from Thermofisher Scientific. The anti-human CD3 (UCHT1), and the anti-human TCR γδ and TCR Vδ1 antibodies were purchased from Beckman Coulter (Brea, Calif., USA). Anti-human CD3, CD73, CD39 and their isotypically matched control mouse antibodies were from BD Biosciences (San Jose, Calif., USA). The anti-human TCR γδ antibody used for IHC was from Santa Cruz Biotechnology (USA). Recombinant human IL-2 (rhIL-2) was from Novartis Pharma (Rueil-Malmaison, France), and recombinant IL-21 (rhIL-21) was from Miltenyi Biotec (Paris, France). ELISA kits for detecting human IL-10 and IL-8 were from BD Biosciences (San Jose, Calif., USA). ELISA kit for the detection of human TGFβ was from RD system.
Expanded Vδ1 T cells (2.106 cells/mL) were incubated in fresh medium without cytokines in wells coated or not with the anti-CD3 antibody (UCHT1) for 6 h, and then supernatants were collected. IL-8 and IL-10 protein levels were assessed using the relevant BD Biosciences Opteia Kits. The mean values of duplicate samples from the same experiment are shown for each data point with their standard error of the mean (SEM).

Row | Compound | adenosine production by control and IL-21-amplified Vδ1 T cells (Vδ1 T cells [1]; in the presence of the CD73 inhibitor) | percentage of CD39-positive cells (Vδ1 T cells [2]; Vδ1 T cells from healthy donors expanded with rhIL-2+rhIL-21 vs rhIL-2 only (control)) | fraction of Vδ1 T cells expressing PD-L1 (Vδ1 T cells [2]; cells exposed to rhIL-21, about 50% in the control condition) [%] | fraction of CD39/CD73-positive Vδ1 T cells (Vδ1 T cells [2]; expanded with rhIL-2+rhIL-21, vs 18% in control cells) [%] | fraction of CD73-positive Vδ1 T cells (Vδ1 T cells [2]; expanded with rhIL-2+rhIL-21, vs 20% in the control condition (rhIL-2 only)) [%] | percentage of PD-L1+ in CD73-positive Vδ1 T cells (Vδ1 T cells [2]; exposure to rhIL-21 vs control, around 60%) | adenosine generated in the presence of AMP (Vδ1 T cells [1]; IL-21-amplified Vδ1 T cells, control cells (only rhIL-2) ~0.4 μM) [µM] | IL-10 production after TCR/CD3 activation (Vδ1 T cells [3]; IL-21-amplified CD73+ Vδ1 T cells, not in the CD73− cells) | IL-10 in supernatants, absence of activation (Vδ1 T cells [3]; IL-21-amplified Vδ1 T cells, CD73+ or CD73−, not detected in control cells) | IL-8 production (Vδ1 T cells [3]; activated IL-21-amplified CD73+ Vδ1 T cells only) | TGF-β secretion (Vδ1 T cells [3]; any of the tested conditions)
1 | Nc1ncnc2c1ncn2[C@@H]1O[C@H](COP(=O)([O-])CP(=O)(O)O)[C@@H](O)[C@H]1O.[Na+] [APCP, adenosine 5′-(α,β-methylene)-diphosphate sodium salt, reference compound] | strongly impaired |  |  |  |  |  |  |  |  |  | 
2 | rhIL-21: recombinant IL-21 (rhIL-21) from Miltenyi Biotec, cytokine added with rhIL-2 to expand Vδ1 T cells |  | did not modify | 65 | 40 | 50 | did not modify | ~1.4 | strongly increased | basal level | highly present | did not detect
